The values that follow come from patent publication US20250302775A1, “METHODS FOR THE TREATMENT OF DEPRESSION” (Autobahn Therapeutics, Inc., priority 2022, published 2025).

For data set [1], the target named is T1, recombinant human FAAH (rhFAAH) (Homo sapiens, UniProt O00519).
T1 construct: purchased Cayman Chemical (Ann Arbor, MI, USA)
T1 sequence (O00519 1-579): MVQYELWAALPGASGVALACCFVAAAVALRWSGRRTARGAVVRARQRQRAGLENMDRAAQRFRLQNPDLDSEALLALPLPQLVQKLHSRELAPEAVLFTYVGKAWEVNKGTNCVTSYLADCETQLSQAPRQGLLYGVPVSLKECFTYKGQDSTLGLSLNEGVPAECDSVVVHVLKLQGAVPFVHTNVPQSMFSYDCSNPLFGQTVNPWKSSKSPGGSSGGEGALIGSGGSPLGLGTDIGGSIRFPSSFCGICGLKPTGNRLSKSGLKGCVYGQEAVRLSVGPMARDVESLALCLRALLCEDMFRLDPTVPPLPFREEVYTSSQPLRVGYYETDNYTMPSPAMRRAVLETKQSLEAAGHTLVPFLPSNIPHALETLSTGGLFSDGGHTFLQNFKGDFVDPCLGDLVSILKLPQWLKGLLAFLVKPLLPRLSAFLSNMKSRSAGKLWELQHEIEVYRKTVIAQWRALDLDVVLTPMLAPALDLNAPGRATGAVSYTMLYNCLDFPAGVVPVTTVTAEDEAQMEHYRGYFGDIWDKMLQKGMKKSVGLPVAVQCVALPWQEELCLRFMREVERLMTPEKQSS
Briefly: FAAH substrate evaluation: formation of acid metabolite. The class given is biochemical. As to conditions: 0.5 ng/μL rhFAAH, 1 μM test compound, room temperature, pH 8.0, 0-60 minutes. The procedure:
Purified recombinant human FAAH (rhFAAH) was purchased from Cayman Chemical (Ann Arbor, MI, USA). The total volume for each incubation was 400 μL containing a final 0.5 ng/μL rhFAAH, 1 μM test compound, 1.25% ethanol or 1 μM PF-3845 (FAAH inhibitor), and 0.1% bovine serum albumin in Tris-EDTA buffer at pH 8.0). The positive control was LL-341001. The incubation was conducted at the room temperature. At 0, 5, 15, 30 and 60 minutes, an aliquot of 30 μL reaction mixtures was removed and mixed with 300 μL acetonitrile containing 5 ng/mL terfenadine and 10 ng/mL tolbutamide as internal standards to quench the reaction. The resulting mixture was centrifuged at 4000 rpm, 4° C. for 15 minutes, and 100 μL supernatant was ready for LC-MS/MS analysis to measure the formation of acid metabolite.
Acquity Ultra Performance LC system from Waters was used for sample analysis. The chromatography was performed on a reverse phase Kinetex 2.6 μm C18 column, 2.1×30 mm, 100 Å. The mobile phase A comprised of 0.1% formic acid in water and mobile phase B comprised of 0.1% formic acid in acetonitrile with a 2-min run time at the flow rate of 0.8 mL/min for the acid metabolite from positive control or a 1.5 min run time at the flow rate of 0.9 mL/min for the acid metabolite of test compounds. The mass spectrometer (API-5500 and API Q Trap 4000 Applied Biosystems/MDS SCIEX Instruments, Framingham, MA, USA) was operated under ESI positive or negative ion MRM mode.
The formation of acid metabolite was monitored and quantified using one calibration point of 1 μM. The observed rate constant (ke) for the acid metabolite formation was calculated by plotting the metabolite concentration versus time of incubation with the slope being ke and is shown in Table 1.

Data set [2] concerns T3-responsive target genes. Description: expression of T3-responsive target genes in brain, single PO administration. The class given is in vivo, male C57BL/6 mouse. The note with it: LL-341070 about 0.1 to about 300 μg/kg, T3 about 300 μg/kg.
A short description of data set [3]: tissue distribution (TD) assay in mouse, brain and plasma. The note with it: for AUC: male, C57BL/6, mouse, plasma, po, 100 ug/kg; for Brain AUC: single PO 100 μg/kg, male C57BL/6 mouse, AUC 0-24 hr. The class given is in vivo, male C57BL/6 mouse.
Data set [4] concerns T3-responsive target genes. Briefly: expression of T3-responsive target genes in brain, rat cuprizone model. The class given is in vivo. The note with it: 21 day repeat administration; LL-341070 30 or 100 μg/kg, T3 300 μg/kg; Nanostring.
Data set [5] in a line: brain and plasma concentration in rat cuprizone model after 21 days repeat administration. The class given is in vivo. The note with it: 21 days repeat administration 30 or 100 μg/kg, 4 hours post-final dose. How it is done:
In vivo brain exposure of active compound compared to prodrug was assessed via tissue distribution (TD) assay in mouse and rat cuprizone model, measured as brain exposure ratio of brain to plasma following thyromimetic treatment. […] Table 3 also depicts brain-to-plasma AUC ratio.

SMILES strings stand for the structures.

Turning to `CNC(=O)COc1cc(Cl)c(Cc2ccc(O)c(C(C)C)c2F)c(Cl)c1` [Compound 31], in data set [1], the “ke (observed rate constant for the acid metabolite formation)” value is recorded as “A (A = ke is more than or equal to 0.1)”. Besides, the “expression of Hr, Dio3, Klf9 in brain” value in data set [2] is reported as “increases expression of Hr, Dio3, Klf9”. In data set [3], the exposure (AUC) came to 18.8 ng·h/mL and the “Brain AUC” value is 10.9 ng·h/mL. Moreover, the “expression of T3-responsive genes in brain” value in data set [4] was “expression increase was confirmed”.
On to `CC(C)c1c(O)ccc(Cc2c(Cl)cc(OCC(=O)O)cc2Cl)c1F` [LL-341070A], for which, in data set [5], the “brain exposure compared to prodrug LL-341070” value is reported as “enhanced brain exposure”. In addition, in data set [3], the AUC was determined as 35.8 ng·h/mL and the “Brain AUC” value came out at 73.9 ng·h/mL.

Usually AUC stands for the area under the concentration-time curve, a measure of exposure. High values mean high exposure, low ones low exposure.
